Activity calls are given as the source filed them. The calls are words filed in the database; no cut-off is given here.
Legend:
[1] = Toxicity in renal carcinoma xenografted C57BL/6 mouse assessed as change in IL-1beta level at 0.8 mg/kg, ip; assay type: organism-based; conditions: in vivo
[2] = Effect on bile acid homeostasis in HCD-fed C57BL/6 mouse assessed as fold increase in LXRalpha mRNA expression by RT-qPCR analysis; assay type: functional
[3] = Toxicity in renal carcinoma xenografted C57BL/6 mouse assessed as effect on visceral coefficient of spleen at 0.8 mg/kg, ip; assay type: organism-based; conditions: in vivo
[4] = system: HepG2; experiment: Induction of mitochondrial membrane potential loss in human HepG2 cells assessed as intact mitochondrial membrane potential at 5 uM after 48 hrs by TMRM dye based flow cytometric analysis (reference value: 74.2%); assay type: cell-based; conditions: hepg2, 48 h
[5] = Toxicity in HCD-fed C57BL/6 mouse assessed as fold increase in ALT level at 0.8 mg/kg, ip; assay type: organism-based; conditions: in vivo
[6] = system: Mus musculus; experiment: Induction of hepatic pathological changes in normal chow diet fed C57BL/6 mouse at 0.8 mg/kg, ip; assay type: organism-based; conditions: in vivo
[7] = species on record: Mus musculus; experiment: Effect on bile acid homeostasis in HCD-fed C57BL/6 mouse assessed as change in Car protein expression; assay type: functional
[8] = Effect on bile acid homeostasis in HCD-fed C57BL/6 mouse assessed as decrease in Car mRNA expression by RT-qPCR analysis; assay type: functional; set-up: scale not given: the % may be the effect or the level left
[9] = system: Mus musculus; experiment: Induction of HCD-induced cholestasis in C57BL/6 mouse assessed as large scale necrotic foci at 0.8 mg/kg, ip; assay type: functional, organism-based
[10] = Hepatotoxicity in renal carcinoma xenografted C57BL/6 mouse assessed as white discoloration of liver at 0.8 mg/kg, ip; assay type: toxicity, organism-based; conditions: in vivo
[11] = Toxicity in HCD-fed C57BL/6 mouse assessed as fold increase in AST level at 0.8 mg/kg, ip; assay type: organism-based; conditions: in vivo
[12] = system: HepG2; experiment: Induction of apoptosis in human HepG2 cells assessed as early apoptotic cells at 5 uM measured after 48 hrs by Annexin-V-FITC/propidium iodide staining based flow cytometry (reference value: 15.5 %); assay type: functional
[13] = Toxicity in renal carcinoma xenografted C57BL/6 mouse kidney assessed as change in CRE level at 0.8 mg/kg, ip; assay type: organism-based; conditions: in vivo
[14] = system: HepG2; experiment: Cytotoxicity against human HepG2 cells assessed as reduction in cell viability at < 10 uM incubated for 48 hrs by MTT assay; assay type: cell-based; conditions: hepg2, 48 h
[15] = system: Mus musculus; experiment: Induction of HCD-induced cholestasis in C57BL/6 mouse assessed as fold increase in plasma total bile acid level at 0.8 mg/kg, ip; assay type: functional
[16] = Effect on bile acid homeostasis in HCD-fed C57BL/6 mouse assessed as reversal of LXRbeta mRNA upregulation by RT-qPCR analysis; assay type: functional
[17] = Induction of LDLR mRNA level in human HepG2 cells assessed as fold increase in LDLR expression at 1 uM by RT-qPCR analysis; assay type: functional
[18] = Hepatotoxicity in renal carcinoma xenografted C57BL/6 mouse assessed as liver necrosis at 0.8 mg/kg, ip by histological analysis; assay type: toxicity, organism-based; conditions: in vivo
[19] = species on record: Mus musculus; experiment: Effect on bile acid homeostasis in HCD-fed C57BL/6 mouse assessed as change in Bsep mRNA expression by RT-qPCR analysis; assay type: functional
[20] = species on record: Mus musculus; experiment: Effect on bile acid homeostasis in HCD-fed C57BL/6 mouse assessed as change in Ugt1a1 mRNA expression by RT-qPCR analysis; assay type: functional
[21] = system: Mus musculus; experiment: Induction of HCD-induced cholestasis in C57BL/6 mouse assessed as lipid accumulation in liver at 0.8 mg/kg, ip; assay type: functional, organism-based
[22] = Hepatotoxicity in renal carcinoma xenografted C57BL/6 mouse assessed as liver swelling at 0.8 mg/kg, ip; assay type: toxicity, organism-based; conditions: in vivo
[23] = Hepatotoxicity in renal carcinoma xenografted C57BL/6 mouse assessed as appearance of pyknotic nucleus at 0.8 mg/kg, ip by histological analysis; assay type: toxicity, organism-based; conditions: in vivo
[24] = Induction of LDLR mRNA level in human HepG2 cells assessed as fold increase in LDLR expression at 5 uM by RT-qPCR analysis; assay type: functional
[25] = Effect on bile acid homeostasis in HCD-fed C57BL/6 mouse assessed as inhibition of Cyp7a1 mRNA expression by RT-qPCR analysis; assay type: functional; set-up: scale not given: the % may be the effect or the level left
[26] = system: HepG2; experiment: Induction of apoptosis in human HepG2 cells assessed as late apoptotic cells at 5 uM measured after 48 hrs by Annexin-V-FITC/propidium iodide staining based flow cytometry (reference value: 0 %); assay type: functional
[27] = Effect on bile acid homeostasis in HCD-fed C57BL/6 mouse assessed as down regulation of Oatp1 mRNA expression by RT-qPCR analysis; assay type: functional
[28] = system: HepG2; experiment: Induction of apoptosis in human HepG2 cells assessed as necrotic cells at 5 uM measured after 48 hrs by Annexin-V-FITC/propidium iodide staining based flow cytometry (reference value: 0 %); assay type: functional
[29] = system: HepG2; experiment: Induction of apoptosis in human HepG2 cells assessed as change in caspase 3 protein expression at 1 to 5 uM after 48 hrs; assay type: functional, cell-based; conditions: dose 1-5 µM
[30] = species on record: Mus musculus; experiment: Effect on bile acid homeostasis in HCD-fed C57BL/6 mouse assessed as change in Mrp2 mRNA expression by RT-qPCR analysis; assay type: functional
[31] = Toxicity in renal carcinoma xenografted C57BL/6 mouse assessed as effect on visceral coefficient of liver at 0.8 mg/kg, ip; assay type: organism-based; conditions: in vivo
[32] = system: HepG2; experiment: Induction of mitochondrial dysfunction in human HepG2 cells assessed as increase in ROS production at 0.1 to 5 uM after 48 hrs by flow cytometric analysis; assay type: cell-based; conditions: hepg2, 48 h, dose 0.1-5 µM
[33] = Effect on bile acid homeostasis in HCD-fed C57BL/6 mouse assessed as inhibition of Cyp8b1 mRNA expression by RT-qPCR analysis; assay type: functional; set-up: scale not given: the % may be the effect or the level left
[34] = Toxicity in renal carcinoma xenografted C57BL/6 mouse kidney assessed as change in BUN level at 0.8 mg/kg, ip; assay type: organism-based; conditions: in vivo
[35] = Toxicity in renal carcinoma xenografted C57BL/6 mouse assessed as change in IL-6 level at 0.8 mg/kg, ip; assay type: organism-based; conditions: in vivo
[36] = species on record: Mus musculus; experiment: Effect on bile acid homeostasis in HCD-fed C57BL/6 mouse assessed as change in Ppar-alpha mRNA expression by RT-qPCR analysis; assay type: functional
[37] = system: HepG2; experiment: Induction of apoptosis in human HepG2 cells assessed as live cells at 5 uM measured after 48 hrs by Annexin-V-FITC/propidium iodide staining based flow cytometry (reference value: 84.5 %); assay type: functional
[38] = Down regulation of Cyp7a1 mRNA expression level in human HepG2 cells at 1 uM by RT-qPCR analysis; assay type: functional
[39] = system: Mus musculus; experiment: Induction of histopathological changes in HCD-fed C57BL/6 mouse assessed as swelling gallbladder size at 0.8 mg/kg, ip; assay type: organism-based; conditions: in vivo
[40] = species on record: Mus musculus; experiment: Effect on bile acid homeostasis in Chow diet-fed C57BL/6 mouse assessed as change in Car protein expression; assay type: functional
[41] = system: Mus musculus; experiment: Induction of HCD-induced cholestasis in C57BL/6 mouse assessed as fold increase in liver total cholesterol level at 0.8 mg/kg, ip; assay type: organism-based; conditions: in vivo
[42] = system: Mus musculus; experiment: Induction of HCD-induced cholestasis in C57BL/6 mouse assessed as fold increase in liver total bile acid level at 0.8 mg/kg, ip; assay type: organism-based; conditions: in vivo

In the case of `C/C=C(\C)[C@H](O[C@@H]1O[C@H](CO)[C@@H](O)[C@H](O)[C@H]1O)[C@H](C)/C=C(C)/C=C/C/C(C)=C/Cc1nc(OC)c(OC)c(O)c1C`, the Activity [1] is reported as “Non-Toxic”, the “fold change (FC)” value [2] is reported as 1.4 and the Activity [3] is reported as “Non-Toxic”. For the same molecule, the Activity [4] was 16.6%, the “fold change (FC)” value [5] was 3.8 and the Activity [6] was “Non-Toxic”. The Activity [7] was “inactive”, the Activity [8] was 86% and the Activity [9] was “Active”. The Activity [10] was “Non-Toxic”, the “fold change (FC)” value [11] was 2.3 and the Activity [12] was 35.7%. The Activity [13] was “Non-Toxic”, the Activity [14] was “Non-Toxic” and the “fold change (FC)” value [15] was 3.5. For the same molecule, the Activity [16] was 72%, the “fold change (FC)” value [17] was 2.5 and the Activity [18] was “Toxic”. For the same molecule, the Activity [19] was “inactive”, the Activity [20] was “inactive” and the Activity [21] was “Active”. The Activity [22] was “Non-Toxic”, the Activity [23] was “Toxic” and the “fold change (FC)” value [24] was 2.2. The Activity [25] was 14%, the Activity [26] was 0% and the Activity [27] was 65%. The Activity [28] was 0%, the Activity [29] was “Toxic” and the Activity [30] was “inactive”. The Activity [31] was “Non-Toxic”, the Activity [32] was “Non-Toxic” and the Activity [33] was 3%. For the same molecule, the Activity [34] was “Non-Toxic”, the Activity [35] was “Non-Toxic” and the Activity [36] was “inactive”. For the same molecule, the Activity [37] was 64.3%, the Activity [38] was 51% and the Activity [39] was “Toxic”. The Activity [40] was “inactive”, the “fold change (FC)” value [41] was 3.8 and the “fold change (FC)” value [42] was 2.3.
In the case of `C/C=C(\C)[C@H](O)[C@H](C)/C=C(C)/C=C/C/C(C)=C/Cc1nc(OC)c(OC)c(O)c1C` [PIERICIDIN A], the Activity [1] is reported as “Non-Toxic”, the “fold change (FC)” value [2] is reported as 1.3 and the Activity [3] is reported as “Non-Toxic”. For the same molecule, the Activity [4] was 26.4%, the “fold change (FC)” value [5] was 3.7 and the Activity [6] was “Non-Toxic”. The Activity [7] was “inactive”, the Activity [8] was 50% and the Activity [9] was “Active”. For the same molecule, the Activity [10] was “Non-Toxic”, the “fold change (FC)” value [11] was 2.3 and the Activity [12] was 24.6%. The Activity [13] was “Non-Toxic”, the Activity [14] was “Non-Toxic” and the “fold change (FC)” value [15] was 2.8. The Activity [16] was 72%, the “fold change (FC)” value [17] was 2.7 and the Activity [18] was “Toxic”. For the same molecule, the Activity [19] was “inactive”, the Activity [20] was “inactive” and the Activity [21] was “Active”. For the same molecule, the Activity [22] was “Non-Toxic”, the Activity [23] was “Toxic” and the “fold change (FC)” value [24] was 3.1. For the same molecule, the Activity [25] was 14%, the Activity [26] was 0% and the Activity [27] was 66%. The Activity [28] was 0%, the Activity [29] was “Toxic” and the Activity [30] was “inactive”. For the same molecule, the Activity [31] was “Non-Toxic”, the Activity [32] was “Non-Toxic” and the Activity [33] was 2.8%. The Activity [34] was “Non-Toxic”, the Activity [35] was “Non-Toxic” and the Activity [36] was “inactive”. The Activity [37] was 75.4%, the Activity [38] was 27% and the Activity [39] was “Toxic”. For the same molecule, the Activity [40] was “inactive”, the “fold change (FC)” value [41] was 2.7 and the “fold change (FC)” value [42] was 2.2.

Source: ChEMBL document CHEMBL5034018, “LXR-Mediated Regulation of Marine-Derived Piericidins Aggravates High-Cholesterol Diet-Induced Cholesterol Metabolism Disorder in Mice” (J Med Chem, 2021)
